Calls of active or inactive are those of the source. The rule behind the calls is not given here.
assay: Luciferase light induction in v cholerae bh1651, agonist dose response, confirmatory (AID 624254); conditions: V. cholerae BH1651 luxOD47E, luciferase light induction, 6 h; at 50 µM (top of the series)

Row | Compound | activation (light increase)
1 | O=S(=O)(Nc1cccc(S(=O)(=O)N2CCCCC2)c1)c1ccccc1F | inactive
2 | COc1ccc(-n2c(COc3ccccc3)nnc2SCc2ccc(C#N)cc2)cc1 | inactive
3 | COc1ccc(CC(=O)N2CCC(Nc3nc4ccccc4n3Cc3ccc(F)cc3)CC2)cc1 | inactive
4 | C=Cn1c(C(=O)O)ccc1-c1ccc(Cl)cc1 | inactive
5 | CC(C)Oc1ccc(C(=O)Nc2cc(S(=O)(=O)N3CCOCC3)ccc2N2CCOCC2)cc1 | inactive
6 | CCc1ccc(-c2ccc(C(=O)O)n2C)cc1 | inactive
7 | CCCc1ccc2oc(C(=O)N(Cc3ccncc3)CC3CCCO3)c(C)c2c1 (configuration not stated) | inactive
8 | COc1cccc(CNC(=O)COC(=O)CN(C)S(=O)(=O)c2ccc(NC(C)=O)cc2)c1 | inactive
9 | CC(C)CNC(=O)c1c2c(nc3ccccc13)-c1ccccc1CC2 | inactive
10 | C[C@H](CO)N1C[C@H](C)[C@H](CN(C)S(=O)(=O)c2ccccc2)Oc2c(NC(=O)Nc3ccc4c(c3)OCO4)cccc2C1=O | inactive
11 | CCc1sc(N(C(=O)Cc2ccccc2)c2cccc(F)c2)nc1-c1ccc(C)cc1 | inactive
12 | O=C(Nc1nnc(C2CC2)s1)c1cccc(S(=O)(=O)N2CCc3ccccc32)c1 | inactive
13 | C[C@H](CO)N1C[C@H](C)[C@@H](CN(C)S(=O)(=O)c2cccs2)Oc2c(NC(=O)C3CC3)cccc2C1=O | inactive
14 | CCOc1ccc(C(=O)OCC(=O)N2CCCC2)cc1 | inactive
15 | CCC(C)Cn1c(S(=O)(=O)O)nc2ccccc21 (configuration not stated) | inactive
16 | Cc1noc(C)c1NC(=O)Nc1cccc2c1O[C@@H](CN(C)S(=O)(=O)c1cccs1)[C@@H](C)CN([C@@H](C)CO)C2=O | inactive

Row | Compound | activation (light increase)
17 | Cc1ccc(S(=O)(=O)Nc2ccccc2F)cc1C(=O)NCCCN1CCCC1=O | inactive
18 | O=C(COc1cccc(Cl)c1)Nc1ccccc1N1CCCCC1 | inactive
19 | CCCn1nnnc1NCc1ccc(N2CCCC2)cc1 | inactive
20 | O=S(=O)(Nc1ccc(-c2csc(-c3ccccc3)n2)cc1)c1ccc(F)cc1 | inactive
21 | Cn1cnc(S(=O)(=O)Nc2ccc(OC(F)(F)F)cc2)c1 | inactive
22 | Cc1ccc(Oc2ccc(S(=O)(=O)N3CCOCC3)cc2C(N)=O)c(-n2nc3ccccc3n2)c1 | inactive
23 | O=C(NCc1nc(-c2ccccc2)no1)c1cccs1 | inactive
24 | COc1ccccc1NC(=O)Cc1csc(NC(=S)Nc2ccccc2)n1 | inactive
25 | Cn1ccnc1S(=O)(=O)Nc1ccc(OC(F)(F)F)cc1 | inactive
26 | Cc1ccc(OCCCC(=O)N(C)CC(=O)Nc2ccccc2Cl)cc1 | inactive
27 | CC(C)(C)OC(=O)NCCCC(CCCNC(=O)OC(C)(C)C)C(=O)O | inactive
28 | Cc1ccc(C2(C)NC(=O)N(CC(=O)NCCC3=CCCCC3)C2=O)cc1 (configuration not stated) | inactive
29 | O=C(COC(=O)/C=C/c1cccc(F)c1)NC1CCCC1 | inactive
30 | Cc1noc(C)c1NC(=O)Nc1cccc2c1O[C@@H](CN(C)S(=O)(=O)c1cccs1)[C@@H](C)CN([C@H](C)CO)C2=O | inactive
31 | Cn1c(SCc2cnc(-c3ccccc3)s2)nnc1C1COc2ccccc2O1 (configuration not stated) | inactive
32 | COC(=O)Cc1c(C)c2ccc(OC(=O)c3ccccc3)cc2oc1=O | inactive
